The target in assay [1] is Tyrosine-protein kinase Fgr (Homo sapiens) (UniProt P09769). The assay is described as follows: Inhibition of human FGR using poly[Glu:Tyr] (4:1) as substrate at 1 uM in presence of 32P-ATP by Hotspot assay relative to control; values are per cent of control.
Assay [2] concerns the target RAC-alpha serine/threonine-protein kinase (Homo sapiens) (UniProt P31749). The assay is described as follows: Inhibition of human AKT1 using KGSGSGRPRTSSFAEG as substrate at 1 uM in presence of 32P-ATP by Hotspot assay relative to control; values are per cent of control.
For assay [3], the target named is Calcium/calmodulin-dependent protein kinase type II subunit gamma (Homo sapiens) (UniProt Q13555). Briefly: Inhibition of human CAMK2g using KKLNRTLSFAEPG as substrate at 1 uM in presence of 32P-ATP by Hotspot assay relative to control; values are per cent of control.
Assay [4] concerns the target T1, Dual specificity tyrosine-phosphorylation-regulated kinase 2 (Homo sapiens) (UniProt Q92630).
T1 sequence (whole entry): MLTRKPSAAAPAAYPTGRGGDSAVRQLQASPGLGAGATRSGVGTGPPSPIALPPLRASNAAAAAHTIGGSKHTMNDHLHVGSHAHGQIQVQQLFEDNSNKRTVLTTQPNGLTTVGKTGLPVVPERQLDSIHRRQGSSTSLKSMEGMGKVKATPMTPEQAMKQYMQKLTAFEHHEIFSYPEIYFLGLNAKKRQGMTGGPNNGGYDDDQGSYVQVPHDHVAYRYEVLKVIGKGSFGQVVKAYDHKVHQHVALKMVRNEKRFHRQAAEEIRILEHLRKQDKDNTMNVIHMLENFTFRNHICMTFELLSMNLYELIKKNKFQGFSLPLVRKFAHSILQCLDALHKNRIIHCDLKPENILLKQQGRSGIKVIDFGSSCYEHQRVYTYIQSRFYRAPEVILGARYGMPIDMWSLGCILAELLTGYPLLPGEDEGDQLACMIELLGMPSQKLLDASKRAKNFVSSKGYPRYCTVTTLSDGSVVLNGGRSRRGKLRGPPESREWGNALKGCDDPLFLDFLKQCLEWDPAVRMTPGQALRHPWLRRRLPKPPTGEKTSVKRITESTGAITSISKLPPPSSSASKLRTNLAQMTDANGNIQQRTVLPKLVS
Briefly: Inhibition of human DYRK2 using RRRFRPASPLRGPPK as substrate at 1 uM in presence of 32P-ATP by Hotspot assay relative to control; values are per cent of control.

Assay [5] deals with T2, Protein kinase C iota type (Homo sapiens) (UniProt P41743).
T2 sequence (whole entry): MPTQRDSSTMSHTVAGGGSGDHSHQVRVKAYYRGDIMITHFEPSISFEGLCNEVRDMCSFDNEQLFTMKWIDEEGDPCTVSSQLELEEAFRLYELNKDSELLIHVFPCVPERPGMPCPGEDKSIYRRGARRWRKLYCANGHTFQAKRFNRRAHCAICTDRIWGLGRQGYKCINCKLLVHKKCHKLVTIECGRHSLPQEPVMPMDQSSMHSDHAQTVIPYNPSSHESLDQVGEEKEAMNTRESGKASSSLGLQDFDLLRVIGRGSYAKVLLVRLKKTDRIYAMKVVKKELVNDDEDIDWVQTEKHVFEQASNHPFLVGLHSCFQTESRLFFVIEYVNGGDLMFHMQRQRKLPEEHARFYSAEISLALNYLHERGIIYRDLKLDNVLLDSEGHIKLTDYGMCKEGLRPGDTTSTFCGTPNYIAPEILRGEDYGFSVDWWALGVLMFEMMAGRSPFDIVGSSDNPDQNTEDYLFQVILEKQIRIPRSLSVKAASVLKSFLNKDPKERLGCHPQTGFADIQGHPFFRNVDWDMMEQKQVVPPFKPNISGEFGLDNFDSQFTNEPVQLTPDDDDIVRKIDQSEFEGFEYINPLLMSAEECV
The assay is described as follows: Inhibition of human PKCiota using ERMRPRKRQGSVRRRV as substrate at 1 uM in presence of 32P-ATP by Hotspot assay relative to control; values are per cent of control.

In assay [6] the target is Protein kinase C eta type (Homo sapiens) (UniProt P24723). Briefly: Inhibition of human PKCeta using ERMRPRKRQGSVRRRV as substrate at 1 uM in presence of 32P-ATP by Hotspot assay relative to control; values are per cent of control.
In assay [7] the target is Insulin-like growth factor 1 receptor (Homo sapiens) (UniProt P08069). Briefly: Inhibition of human IGF1R using KKKSPGEYVNIEFG as substrate at 1 uM in presence of 32P-ATP by Hotspot assay relative to control; values are per cent of control.
For assay [8], the target named is Ribosomal protein S6 kinase alpha-5 (Homo sapiens) (UniProt O75582). The assay is described as follows: Inhibition of human MSK1/RPS6KA5 using GRPRTSSFAEG as substrate at 1 uM in presence of 32P-ATP by Hotspot assay relative to control; values are per cent of control.
For assay [9], the target named is T3, Serine/threonine-protein kinase Sgk3 (Homo sapiens) (UniProt Q96BR1).
T3 sequence (whole entry): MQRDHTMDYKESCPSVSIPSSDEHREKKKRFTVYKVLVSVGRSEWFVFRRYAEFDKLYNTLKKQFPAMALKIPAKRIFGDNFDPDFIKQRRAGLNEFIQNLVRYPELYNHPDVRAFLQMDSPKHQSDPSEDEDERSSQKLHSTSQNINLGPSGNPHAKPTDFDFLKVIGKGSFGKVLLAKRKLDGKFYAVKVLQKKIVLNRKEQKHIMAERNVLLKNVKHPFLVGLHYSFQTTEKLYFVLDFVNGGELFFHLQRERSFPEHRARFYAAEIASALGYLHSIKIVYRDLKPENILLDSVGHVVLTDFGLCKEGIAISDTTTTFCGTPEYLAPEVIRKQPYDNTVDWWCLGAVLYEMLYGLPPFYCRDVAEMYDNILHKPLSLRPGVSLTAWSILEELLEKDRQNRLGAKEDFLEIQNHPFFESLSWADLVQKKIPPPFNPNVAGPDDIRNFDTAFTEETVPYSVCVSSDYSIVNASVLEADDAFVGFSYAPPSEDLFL
Briefly: Inhibition of human SGK3/SGKL using KGSGSGRPRTSSFAEG as substrate at 1 uM in presence of 32P-ATP by Hotspot assay relative to control; values are per cent of control.

Sequence of Insulin-like growth factor 1 receptor (Homo sapiens) (P08069 31-736 limits assumed): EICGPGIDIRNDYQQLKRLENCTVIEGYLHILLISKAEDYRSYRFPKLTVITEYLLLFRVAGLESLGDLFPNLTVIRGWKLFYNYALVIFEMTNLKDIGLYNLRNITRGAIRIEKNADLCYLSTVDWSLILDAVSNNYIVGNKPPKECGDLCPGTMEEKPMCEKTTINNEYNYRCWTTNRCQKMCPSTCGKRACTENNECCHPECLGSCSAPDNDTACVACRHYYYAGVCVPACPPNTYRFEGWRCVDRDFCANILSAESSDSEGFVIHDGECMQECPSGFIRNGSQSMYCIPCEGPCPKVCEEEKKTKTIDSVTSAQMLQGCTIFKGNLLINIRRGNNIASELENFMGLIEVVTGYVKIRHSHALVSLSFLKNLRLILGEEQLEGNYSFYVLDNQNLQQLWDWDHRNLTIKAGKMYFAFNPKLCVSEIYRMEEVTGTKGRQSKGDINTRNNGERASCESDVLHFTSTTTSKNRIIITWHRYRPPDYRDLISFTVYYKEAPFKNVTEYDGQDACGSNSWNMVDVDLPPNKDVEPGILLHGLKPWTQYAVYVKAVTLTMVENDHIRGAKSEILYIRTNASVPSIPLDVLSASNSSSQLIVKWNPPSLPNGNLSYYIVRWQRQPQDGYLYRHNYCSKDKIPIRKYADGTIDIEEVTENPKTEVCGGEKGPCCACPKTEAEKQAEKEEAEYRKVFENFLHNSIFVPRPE
Sequence of Insulin-like growth factor 1 receptor (Homo sapiens) (P08069 741-1367 limits assumed): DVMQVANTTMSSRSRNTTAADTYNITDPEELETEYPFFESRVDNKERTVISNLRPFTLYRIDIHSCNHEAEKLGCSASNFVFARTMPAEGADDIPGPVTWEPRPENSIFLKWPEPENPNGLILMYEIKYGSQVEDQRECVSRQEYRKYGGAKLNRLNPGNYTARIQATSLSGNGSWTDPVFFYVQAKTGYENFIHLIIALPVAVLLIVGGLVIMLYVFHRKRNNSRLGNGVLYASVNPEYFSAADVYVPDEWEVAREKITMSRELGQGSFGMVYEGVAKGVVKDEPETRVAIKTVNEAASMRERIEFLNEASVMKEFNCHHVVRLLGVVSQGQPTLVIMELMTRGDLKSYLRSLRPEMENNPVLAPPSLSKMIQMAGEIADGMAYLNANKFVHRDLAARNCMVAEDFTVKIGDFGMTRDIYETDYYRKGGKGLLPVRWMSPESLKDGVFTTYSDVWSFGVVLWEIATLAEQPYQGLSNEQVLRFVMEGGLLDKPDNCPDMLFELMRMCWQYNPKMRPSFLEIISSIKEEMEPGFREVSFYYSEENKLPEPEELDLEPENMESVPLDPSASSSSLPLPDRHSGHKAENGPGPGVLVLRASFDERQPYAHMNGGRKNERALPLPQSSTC
Sequence of RAC-alpha serine/threonine-protein kinase (Homo sapiens) (P31749 whole entry): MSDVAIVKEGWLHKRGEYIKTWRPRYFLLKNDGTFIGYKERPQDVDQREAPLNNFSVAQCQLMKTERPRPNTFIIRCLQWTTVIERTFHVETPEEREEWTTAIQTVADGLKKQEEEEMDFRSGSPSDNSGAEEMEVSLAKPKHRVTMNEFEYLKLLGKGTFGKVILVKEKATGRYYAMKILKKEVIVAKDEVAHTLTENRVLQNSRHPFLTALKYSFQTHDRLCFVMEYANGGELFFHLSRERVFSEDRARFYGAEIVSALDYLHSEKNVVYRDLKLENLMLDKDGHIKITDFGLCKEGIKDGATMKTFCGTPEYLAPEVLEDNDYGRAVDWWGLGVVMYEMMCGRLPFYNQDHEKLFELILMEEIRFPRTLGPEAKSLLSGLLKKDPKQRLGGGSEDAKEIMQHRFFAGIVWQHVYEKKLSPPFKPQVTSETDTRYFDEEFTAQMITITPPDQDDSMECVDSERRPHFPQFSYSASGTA
Sequence of Ribosomal protein S6 kinase alpha-5 (Homo sapiens) (O75582 whole entry, looked up): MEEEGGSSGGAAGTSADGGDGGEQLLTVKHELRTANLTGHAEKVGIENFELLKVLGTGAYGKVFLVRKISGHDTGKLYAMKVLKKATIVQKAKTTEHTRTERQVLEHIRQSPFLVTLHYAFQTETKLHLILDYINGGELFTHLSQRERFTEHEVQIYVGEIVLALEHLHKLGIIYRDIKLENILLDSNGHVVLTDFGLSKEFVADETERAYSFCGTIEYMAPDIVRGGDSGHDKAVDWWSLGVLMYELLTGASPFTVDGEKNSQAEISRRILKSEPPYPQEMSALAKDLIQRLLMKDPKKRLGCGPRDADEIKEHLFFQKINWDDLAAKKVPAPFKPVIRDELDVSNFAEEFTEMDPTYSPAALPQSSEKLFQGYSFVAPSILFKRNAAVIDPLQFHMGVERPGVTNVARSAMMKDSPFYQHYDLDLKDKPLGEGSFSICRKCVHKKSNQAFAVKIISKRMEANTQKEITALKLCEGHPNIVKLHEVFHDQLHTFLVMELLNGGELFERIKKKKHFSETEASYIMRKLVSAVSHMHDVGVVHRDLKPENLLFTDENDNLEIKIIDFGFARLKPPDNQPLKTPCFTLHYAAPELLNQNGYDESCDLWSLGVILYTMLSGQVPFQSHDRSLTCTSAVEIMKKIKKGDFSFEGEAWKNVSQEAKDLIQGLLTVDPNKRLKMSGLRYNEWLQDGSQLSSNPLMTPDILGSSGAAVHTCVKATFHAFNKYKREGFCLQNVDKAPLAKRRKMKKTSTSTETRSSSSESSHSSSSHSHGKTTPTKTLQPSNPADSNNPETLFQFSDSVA
Sequence of Protein kinase C eta type (Homo sapiens) (P24723 whole entry): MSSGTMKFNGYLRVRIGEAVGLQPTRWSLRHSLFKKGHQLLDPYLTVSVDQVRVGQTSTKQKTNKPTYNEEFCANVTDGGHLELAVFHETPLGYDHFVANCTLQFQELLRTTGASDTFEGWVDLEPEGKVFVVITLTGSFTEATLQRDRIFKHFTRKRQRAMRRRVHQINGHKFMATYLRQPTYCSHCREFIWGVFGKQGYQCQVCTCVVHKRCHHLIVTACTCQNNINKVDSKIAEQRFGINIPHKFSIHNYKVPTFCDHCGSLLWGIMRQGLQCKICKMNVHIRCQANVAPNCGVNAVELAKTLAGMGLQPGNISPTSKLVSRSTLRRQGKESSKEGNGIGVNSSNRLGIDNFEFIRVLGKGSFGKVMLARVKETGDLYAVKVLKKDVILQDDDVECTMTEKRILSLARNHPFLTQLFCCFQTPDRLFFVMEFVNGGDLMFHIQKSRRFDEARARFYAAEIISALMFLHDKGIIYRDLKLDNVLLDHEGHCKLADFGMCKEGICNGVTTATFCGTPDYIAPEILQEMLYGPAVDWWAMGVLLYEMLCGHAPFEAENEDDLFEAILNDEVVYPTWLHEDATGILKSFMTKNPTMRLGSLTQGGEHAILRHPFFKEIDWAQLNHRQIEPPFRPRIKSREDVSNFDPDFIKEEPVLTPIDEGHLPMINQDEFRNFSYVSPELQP
Sequence of Calcium/calmodulin-dependent protein kinase type II subunit gamma (Homo sapiens) (Q13555 whole entry): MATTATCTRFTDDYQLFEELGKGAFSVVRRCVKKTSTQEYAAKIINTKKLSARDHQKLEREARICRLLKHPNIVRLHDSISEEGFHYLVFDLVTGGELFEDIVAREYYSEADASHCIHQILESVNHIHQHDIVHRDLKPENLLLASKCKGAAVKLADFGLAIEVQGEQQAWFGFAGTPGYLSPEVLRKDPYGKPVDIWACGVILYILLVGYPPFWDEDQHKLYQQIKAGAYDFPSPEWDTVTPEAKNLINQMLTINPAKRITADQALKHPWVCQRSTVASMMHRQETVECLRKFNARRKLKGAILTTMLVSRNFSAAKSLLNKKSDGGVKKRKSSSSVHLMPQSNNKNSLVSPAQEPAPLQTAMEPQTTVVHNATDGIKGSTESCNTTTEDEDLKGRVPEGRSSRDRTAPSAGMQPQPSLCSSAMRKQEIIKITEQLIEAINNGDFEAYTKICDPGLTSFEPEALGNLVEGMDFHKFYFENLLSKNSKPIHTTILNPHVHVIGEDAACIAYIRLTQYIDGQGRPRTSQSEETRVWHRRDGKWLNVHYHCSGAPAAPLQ
Sequence of Tyrosine-protein kinase Fgr (Homo sapiens) (P09769 2-529 limits assumed): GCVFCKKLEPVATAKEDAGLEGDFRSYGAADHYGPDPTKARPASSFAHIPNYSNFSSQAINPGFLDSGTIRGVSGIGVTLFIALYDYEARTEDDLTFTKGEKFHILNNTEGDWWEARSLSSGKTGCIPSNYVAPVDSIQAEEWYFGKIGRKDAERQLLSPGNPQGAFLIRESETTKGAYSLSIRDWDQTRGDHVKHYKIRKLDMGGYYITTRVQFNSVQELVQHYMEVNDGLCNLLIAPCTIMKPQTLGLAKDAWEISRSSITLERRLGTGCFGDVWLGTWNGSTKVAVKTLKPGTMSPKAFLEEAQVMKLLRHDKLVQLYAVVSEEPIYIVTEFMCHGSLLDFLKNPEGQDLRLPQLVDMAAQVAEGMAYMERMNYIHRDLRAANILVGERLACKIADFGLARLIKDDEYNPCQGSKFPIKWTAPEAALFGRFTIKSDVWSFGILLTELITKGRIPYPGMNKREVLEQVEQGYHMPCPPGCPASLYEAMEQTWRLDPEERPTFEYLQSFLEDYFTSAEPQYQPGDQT

On to `CNC(=O)c1ccc2c(c1)ncn2-c1ccc(CC(=O)OC(C)(C)C)cc1`, for which the residual activity turned out to be 37.6% in [1]; 91.3% in [2]; 98.5% in [3]; 96.1% in assay [4]; 93.8% in assay [5]; 92.5% in assay [6]. Also, the residual activity was found to be 97.6% in assay [7], 89.4% in assay [8] and 96.7% in [9].

Take `Cc1cc(-c2cnc(N)c3c(-c4ccc5scnc5c4)csc23)n(C)n1`: the residual activity in assay [1] worked out at 22.2%; in assay [2], 98.9%; in assay [3], 82.4%; in assay [4] it was 78.5%; in assay [5], 102%; in [6], 73.6%. The residual activity in assay [7] amounted to 101%; in assay [8], 97.4%; in assay [9] it was 97.9%.

As to `CC(C)S(=O)(=O)c1ccc2nccc(Nc3ccc4scnc4c3)c2c1`, the residual activity in assay [1] was determined as 28.5%; in assay [2], 97.6%; in [3], 98.3%; in [4] it was 101%; in assay [5], 83%; in [6] it was 88%. The residual activity in [7] turned out to be 100%; in assay [8], 97.9%; in [9] it was 106%.

What is called residual activity is the signal under treatment as a percentage of the control signal.

For the origin of these results see ChEMBL document CHEMBL5649166, “RIP3 induces apoptosis independent of pronecrotic kinase activity” (Mol Cell, 2014).
